Measured values: ChEMBL document CHEMBL2434896, “Carbonic anhydrase inhibitors. Synthesis of heterocyclic 4-substituted pyridine-3-sulfonamide derivatives and their inhibition of the human cytosolic isozymes I and II and transmembrane tumor-associated isozymes IX and XII” (Eur J Med Chem, 2013)
Calls of active or inactive are those of the source. No cut-off for these calls is given here.

Legend:
COLO 205 = test: Growth inhibition of human COLO205 cells at 10 uM after 48 hrs by sulforhodamine B assay; type: functional
SW-620 = test: Growth inhibition of human SW620 cells at 10 uM after 48 hrs by sulforhodamine B assay; type: functional
TK-10 = test: Growth inhibition of human TK10 cells at 10 uM after 48 hrs by sulforhodamine B assay; type: functional
BT-549 = test: Growth inhibition of human BT549 cells at 10 uM after 48 hrs by sulforhodamine B assay; type: functional; settings: BT-549, 48 h, read-out: GI
Carbonic anhydrase 9 = Carbonic anhydrase 9 (Homo sapiens, UniProt Q16790); test: Inhibition of human carbonic anhydrase 9 after 15 mins by stopped flow CO2 hydration assay
CAKI-1 = test: Growth inhibition of human CAKI-1 cells at 10 uM after 48 hrs by sulforhodamine B assay; type: functional
NCI-H226 = test: Growth inhibition of human NCI-H226 cells at 10 uM after 48 hrs by sulforhodamine B assay; type: functional; settings: NCI-H226, 48 h, read-out: GI
SNB-19 = test: Growth inhibition of human SNB19 cells at 10 uM after 48 hrs by sulforhodamine B assay; type: functional
SK-MEL-2 = test: Growth inhibition of human SK-MEL-2 cells at 10 uM after 48 hrs by sulforhodamine B assay; type: functional
MCF7 = test: Growth inhibition of human MCF7 cells at 10 uM after 48 hrs by sulforhodamine B assay; type: functional
MDA-MB-435 = test: Growth inhibition of human MDA-MB-435 cells at 10 uM after 48 hrs by sulforhodamine B assay; type: functional
HL-60(TB) = test: Growth inhibition of human HL-60(TB) cells at 10 uM after 48 hrs by sulforhodamine B assay; type: functional; settings: HL-60, 48 h, read-out: GI
HCT-15 = test: Growth inhibition of human HCT15 cells at 10 uM after 48 hrs by sulforhodamine B assay; type: functional
SK-OV-3 = test: Growth inhibition of human SKOV3 cells at 10 uM after 48 hrs by sulforhodamine B assay; type: functional
UACC-257 = test: Growth inhibition of human UACC257 cells at 10 uM after 48 hrs by sulforhodamine B assay; type: functional
A549 = test: Growth inhibition of human A549/ATCC cells at 10 uM after 48 hrs by sulforhodamine B assay; type: functional
SF-268 = test: Growth inhibition of human SF268 cells at 10 uM after 48 hrs by sulforhodamine B assay; type: functional; settings: SF-268, 48 h, read-out: GI
SR = test: Growth inhibition of human SR cells at 10 uM after 48 hrs by sulforhodamine B assay; type: functional; settings: read-out: GI
SF-539 = test: Growth inhibition of human SF539 cells at 10 uM after 48 hrs by sulforhodamine B assay; type: functional; settings: SF-539, 48 h, read-out: GI
786-0 = test: Growth inhibition of human 786-0 cells at 10 uM after 48 hrs by sulforhodamine B assay; type: functional; settings: 786-0, 48 h, read-out: GI
M14 = test: Growth inhibition of human M14 cells at 10 uM after 48 hrs by sulforhodamine B assay; type: functional; settings: M14, 48 h, read-out: GI
SNB-75 = test: Growth inhibition of human SNB75 cells at 10 uM after 48 hrs by sulforhodamine B assay; type: functional; settings: SNB-75, 48 h, read-out: GI
NCI-H460 = test: Growth inhibition of human NCI-H460 cells at 10 uM after 48 hrs by sulforhodamine B assay; type: functional
NCI/ADR-RES = test: Growth inhibition of human NCI-ADR-RES cells at 10 uM after 48 hrs by sulforhodamine B assay; type: functional
NCI-H322M = test: Growth inhibition of human NCI-H322M cells at 10 uM after 48 hrs by sulforhodamine B assay; type: functional
Hs-578T = test: Growth inhibition of human Hs 578T cells at 10 uM after 48 hrs by sulforhodamine B assay; type: functional
Malme-3M = test: Growth inhibition of human MALME-3M cells at 10 uM after 48 hrs by sulforhodamine B assay; type: functional; settings: read-out: GI
NCI-H23 = test: Growth inhibition of human NCI-H23 cells at 10 uM after 48 hrs by sulforhodamine B assay; type: functional; settings: NCI-H23, 48 h, read-out: GI
LOX IMVI = test: Growth inhibition of human LOXIMVI cells at 10 uM after 48 hrs by sulforhodamine B assay; type: functional; settings: read-out: GI
RXF 393 = test: Growth inhibition of human RXF393 cells at 10 uM after 48 hrs by sulforhodamine B assay; type: functional
OVCAR-5 = test: Growth inhibition of human OVCAR5 cells at 10 uM after 48 hrs by sulforhodamine B assay; type: functional
T47D = test: Growth inhibition of human T47D cells at 10 uM after 48 hrs by sulforhodamine B assay; type: functional
HOP-62 = test: Growth inhibition of human HOP62 cells at 10 uM after 48 hrs by sulforhodamine B assay; type: functional
SK-MEL-28 = test: Growth inhibition of human SK-MEL-28 cells at 10 uM after 48 hrs by sulforhodamine B assay; type: functional, cell-based
UACC-62 = test: Growth inhibition of human UACC62 cells at 10 uM after 48 hrs by sulforhodamine B assay; type: functional
HCC 2998 = test: Growth inhibition of human HCC2998 cells at 10 uM after 48 hrs by sulforhodamine B assay; type: functional
IGROV-1 = test: Growth inhibition of human IGROV1 cells at 10 uM after 48 hrs by sulforhodamine B assay; type: functional
MDA-MB-231 = test: Growth inhibition of human MDA-MB-231 cells at 10 uM after 48 hrs by sulforhodamine B assay; type: functional
HT-29 = test: Growth inhibition of human HT-29 cells at 10 uM after 48 hrs by sulforhodamine B assay; type: functional
OVCAR-3 = test: Growth inhibition of human OVCAR3 cells at 10 uM after 48 hrs by sulforhodamine B assay; type: functional
NCI-H522 = test: Growth inhibition of human NCI-H522 cells at 10 uM after 48 hrs by sulforhodamine B assay; type: functional
OVCAR-8 = test: Growth inhibition of human OVCAR8 cells at 10 uM after 48 hrs by sulforhodamine B assay; type: functional
DU-145 = test: Growth inhibition of human DU145 cells at 10 uM after 48 hrs by sulforhodamine B assay; type: functional
MOLT-4 = test: Growth inhibition of human MOLT4 cells at 10 uM after 48 hrs by sulforhodamine B assay; type: functional; settings: MOLT-4, 48 h, read-out: GI
KM12 = test: Growth inhibition of human KM12 cells at 10 uM after 48 hrs by sulforhodamine B assay; type: functional; settings: KM12, 48 h, read-out: GI
U-251 = test: Growth inhibition of human U251 cells at 10 uM after 48 hrs by sulforhodamine B assay; type: functional
MDA-MB-468 = test: Growth inhibition of human MDA-MB-468 cells at 10 uM after 48 hrs by sulforhodamine B assay; type: functional
K562 = test: Growth inhibition of human K562 cells at 10 uM after 48 hrs by sulforhodamine B assay; type: functional; settings: K562, 48 h, read-out: GI
A498 = test: Growth inhibition of human A498 cells at 10 uM after 48 hrs by sulforhodamine B assay; type: functional; settings: A498, 48 h, read-out: GI
ACHN = test: Growth inhibition of human ACHN cells at 10 uM after 48 hrs by sulforhodamine B assay; type: functional
EKVX = test: Growth inhibition of human EKVX cells at 10 uM after 48 hrs by sulforhodamine B assay; type: functional
SN12C = test: Growth inhibition of human SN12C cells at 10 uM after 48 hrs by sulforhodamine B assay; type: functional
OVCAR-4 = test: Growth inhibition of human OVCAR4 cells at 10 uM after 48 hrs by sulforhodamine B assay; type: functional
SK-MEL-5 = test: Growth inhibition of human SK-MEL-5 cells at 10 uM after 48 hrs by sulforhodamine B assay; type: functional
UO-31 = test: Growth inhibition of human UO31 cells at 10 uM after 48 hrs by sulforhodamine B assay; type: functional; settings: UO-31, 48 h, read-out: GI
SF-295 = test: Growth inhibition of human SF295 cells at 10 uM after 48 hrs by sulforhodamine B assay; type: functional
HCT-116 = test: Growth inhibition of human HCT116 cells at 10 uM after 48 hrs by sulforhodamine B assay; type: functional; settings: HCT-116, 48 h, read-out: GI

SMILES: NS(=O)(=O)c1cnccc1N1CCN(Cc2ccccc2)CC1
- growth inhibition (GI) (COLO 205): inactive
- growth inhibition (GI) (SW-620): inactive
- growth inhibition (GI) (TK-10): inactive
- inhibition of growth at 10 µM (BT-549): 9%
- Ki (Carbonic anhydrase 9): 45.1 nM
- growth inhibition (GI) (CAKI-1): inactive
- inhibition of growth at 10 µM (NCI-H226): 1%
- growth inhibition (GI) (SNB-19): inactive
- growth inhibition (GI) (SK-MEL-2): inactive
- growth inhibition (GI) (MCF7): inactive
- growth inhibition (GI) (MDA-MB-435): inactive
- inhibition of growth at 10 µM (HL-60(TB)): 8%
- growth inhibition (GI) (HCT-15): inactive
- growth inhibition (GI) (SK-OV-3): inactive
- growth inhibition (GI) (UACC-257): inactive
- growth inhibition (GI) (A549): inactive
- inhibition of growth at 10 µM (SF-268): 3%
- inhibition of growth at 10 µM (SR): 13%
- inhibition of growth at 10 µM (SF-539): 6%
- inhibition of growth at 10 µM (786-0): 6%
- inhibition of growth at 10 µM (M14): 2%
- inhibition of growth at 10 µM (SNB-75): 7%
- growth inhibition (GI) (NCI-H460): inactive
- growth inhibition (GI) (NCI/ADR-RES): inactive
- growth inhibition (GI) (NCI-H322M): inactive
- growth inhibition (GI) (Hs-578T): inactive
- inhibition of growth at 10 µM (Malme-3M): 1%
- inhibition of growth at 10 µM (NCI-H23): 1%
- inhibition of growth at 10 µM (LOX IMVI): 4%
- growth inhibition (GI) (RXF 393): inactive
- growth inhibition (GI) (OVCAR-5): inactive
- growth inhibition (GI) (T47D): inactive
- growth inhibition (GI) (HOP-62): inactive
- growth inhibition (GI) (SK-MEL-28): inactive
- growth inhibition (GI) (UACC-62): inactive
- growth inhibition (GI) (HCC 2998): inactive
- growth inhibition (GI) (IGROV-1): inactive
- growth inhibition (GI) (MDA-MB-231): inactive
- growth inhibition (GI) (HT-29): inactive
- growth inhibition (GI) (OVCAR-3): inactive
- growth inhibition (GI) (NCI-H522): inactive
- growth inhibition (GI) (OVCAR-8): inactive
- growth inhibition (GI) (DU-145): inactive
- inhibition of growth at 10 µM (MOLT-4): 5%
- inhibition of growth at 10 µM (KM12): 1%
- growth inhibition (GI) (U-251): inactive
- growth inhibition (GI) (MDA-MB-468): inactive
- inhibition of growth at 10 µM (K562): 3%
- inhibition of growth at 10 µM (A498): 5%
- growth inhibition (GI) (ACHN): inactive
- growth inhibition (GI) (EKVX): inactive
- growth inhibition (GI) (SN12C): inactive
- growth inhibition (GI) (OVCAR-4): inactive
- growth inhibition (GI) (SK-MEL-5): inactive
- inhibition of growth at 10 µM (UO-31): 14%
- growth inhibition (GI) (SF-295): inactive
- inhibition of growth at 10 µM (HCT-116): 6%
